Reference: patent publication US20070196361A1, “Long term administration of pharmacologically active agents” (priority 1999, published 2007)

Columns and labels:
[1] = test system: cancers responsive to paclitaxel; experiment: Long term administration of paclitaxel at sub-therapeutic dose levels in cancer treatment; format: in vivo
Source text: In rapidly dividing cells as in a tumor, different cells are in different phases of the cell cycle at any given time.
The entire dose is usually given on the first day of the 3 week cycle.

tumor cell lines = conditions: cited from earlier work

## CC(=O)O[C@H]1C(=O)[C@@]2(C)[C@H]([C@H](OC(=O)c3ccccc3)[C@]3(O)C[C@H](OC(=O)[C@H](O)[C@@H](NC(=O)c4ccccc4)c4ccccc4)C(C)=C1C3(C)C)[C@]1(OC(C)=O)CO[C@@H]1C[C@@H]2O [paclitaxel]
[1]; continuous administration over 3 weeks, total cumulative dose e.g. 50-150 mg/m^2
  benefit in the treatment of cancers responsive to paclitaxel: significant benefit is obtained
[1]; plasma levels maintained at 0.01-0.05 μg/ml over a week or longer
  benefit in the treatment of cancers responsive to paclitaxel: significant benefit is obtained
Tumor cell lines; in vitro, tumor cell lines
  concentration at which paclitaxel is active on tumor cell lines: ~0.5 µg/mL
Tumor cell lines; tumor cells of the cancer being treated
  levels high enough to be cytotoxic to the tumor cells: 500 to 1000 ng/mL
